This is an account of results in ChEMBL document CHEMBL1201862, “PubChem BioAssay data set” (2004).

Among the test systems are 786-0; A498; ACHN; HOP-62; HT-29; KM12; LOX IMVI; MCF7; MDA-MB-435; Malme-3M; OVCAR-4; PC-3; RPMI-8226; SF-268; SK-MEL-5; SNB-75; U-251; UACC-257; UACC-62.
What all share (test): NCI tumour cell line growth inhibition, 48 h

Molecules are shown by their SMILES.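 Step 1: Grow cells in 96-well plates. Step 2: Expose to compound for 48 hours at 5 concentrations. Step 3: Interpolate endpoints linearly; if unreached, use highest concentration. At the GI50, growth is halved.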 Active and inactive are the calls of the source. Rule as the data show it: active = GI50 up to about 1.1 µM and inactive = higher.

On to `COc1cc(C(=O)O)c([N+](=O)[O-])c(OC)c1OC`, for which the GI50 in the experiment on 786-0, in the experiment with A498, in the experiment on ACHN, in the experiment with HOP-62, with HT-29 and with KM12 was > 100 µM (inactive) each time. Besides, the GI50 with LOX IMVI, with MCF7, in the experiment on MDA-MB-435, in the experiment on Malme-3M, in the experiment on OVCAR-4 and in the experiment on PC-3 was > 100 µM (inactive) throughout. Further, the GI50 in the experiment with RPMI-8226, in the experiment on SF-268, with SK-MEL-5, in the experiment with SNB-75, in the experiment with U-251 and in the experiment with UACC-257 was > 100 µM (inactive) in each case. The GI50 in the experiment with UACC-62 is > 100 µM (inactive).

Turning to `Cc1ccc(/C(C#N)=C/c2cccc([N+](=O)[O-])c2)cc1`, the GI50 in the experiment with 786-0 is 31.8 µM (inactive); in the experiment with A498, 59.4 µM (inactive); with ACHN it was > 100 µM (inactive); in the experiment on HOP-62 it was 38.1 µM (inactive); with HT-29, > 100 µM (inactive); in the experiment on KM12, > 100 µM (inactive). In addition, the GI50 with LOX IMVI was > 100 µM (inactive); in the experiment with MCF7 it was > 100 µM (inactive); in the experiment on MDA-MB-435, > 100 µM (inactive); in the experiment with Malme-3M, > 100 µM (inactive); in the experiment on OVCAR-4, 57.8 µM (inactive); with PC-3, > 100 µM (inactive). Also, the GI50 is > 100 µM (inactive) in the experiment on RPMI-8226; 37.2 µM (inactive) with SF-268; > 100 µM (inactive) in the experiment on SK-MEL-5; 19.5 µM (inactive) in the experiment with SNB-75; 46.7 µM (inactive) with U-251; > 100 µM (inactive) with UACC-257. In addition, in the experiment on UACC-62, the GI50 is 71.1 µM (inactive).

As for `COc1cccc(Nc2n[nH]c(NS(=O)(=O)c3cc(C)c(Cl)cc3S)n2)c1`, the GI50 with 786-0, in the experiment with A498, in the experiment on ACHN, in the experiment on HOP-62, in the experiment with HT-29 and with KM12 was > 100 µM (inactive) throughout. For the same molecule, the GI50 in the experiment with LOX IMVI, in the experiment with MCF7, with MDA-MB-435, in the experiment with Malme-3M, with OVCAR-4 and in the experiment on PC-3 was > 100 µM (inactive) each time. In addition, the GI50 with RPMI-8226, in the experiment on SF-268, with SK-MEL-5, in the experiment on SNB-75, in the experiment on U-251 and with UACC-257 was > 100 µM (inactive) each time. In the experiment on UACC-62, the GI50 was > 100 µM (inactive).

On to `O=C1c2cccnc2-c2nccc3c2c1nc1cc(Br)ccc13`, for which the GI50 with 786-0 is 0.0713 µM (active); in the experiment on A498, 0.0196 µM (active); with ACHN it was 0.208 µM (active); with HOP-62, 0.155 µM (active); in the experiment with HT-29, 0.989 µM (active); with KM12, 0.147 µM (active). The GI50 in the experiment on LOX IMVI is 0.0533 µM (active); in the experiment with MCF7 it was < 0.0366 µM (active); in the experiment on MDA-MB-435, 0.198 µM (active); in the experiment with Malme-3M, 0.108 µM (active); in the experiment with OVCAR-4 it was 0.148 µM (active); with PC-3, 0.275 µM (active). In addition, the GI50 is 0.0748 µM (active) in the experiment on RPMI-8226; 0.134 µM (active) in the experiment on SF-268; 0.132 µM (active) with SK-MEL-5; 0.243 µM (active) with SNB-75; 0.0843 µM (active) in the experiment on U-251; 0.226 µM (active) in the experiment on UACC-257. The GI50 in the experiment on UACC-62 is 0.178 µM (active).

Take `c1ccc2c(c1)Oc1cccc3cccc-2c13`: the GI50 with 786-0, with A498, with ACHN, with HOP-62, in the experiment on HT-29 and in the experiment with KM12 was > 100 µM (inactive) each time. The GI50 with LOX IMVI, with MCF7, in the experiment with MDA-MB-435, with Malme-3M, in the experiment with OVCAR-4 and with PC-3 was > 100 µM (inactive) each time. For the same molecule, the GI50 with RPMI-8226, with SF-268, with SK-MEL-5, in the experiment on SNB-75, in the experiment on U-251 and with UACC-257 was > 100 µM (inactive) each time. Besides, the GI50 in the experiment with UACC-62 was > 100 µM (inactive).

As to `Cc1nc(SCC(N)=O)c2sc(=S)n(-c3ccccc3)c2n1`, the GI50 with 786-0, with A498, in the experiment on ACHN, in the experiment with HOP-62, in the experiment on HT-29 and in the experiment with KM12 was > 10 µM (inactive) in each case. The GI50 in the experiment on LOX IMVI, in the experiment on MCF7, with MDA-MB-435, with Malme-3M, in the experiment on OVCAR-4 and with PC-3 was > 10 µM (inactive) throughout. Moreover, the GI50 with RPMI-8226, with SF-268, in the experiment on SK-MEL-5, in the experiment on SNB-75, in the experiment on U-251 and in the experiment on UACC-257 was > 10 µM (inactive) in each case. Also, in the experiment on UACC-62, the GI50 is > 10 µM (inactive).

For the molecule `Cc1ccc(S(=O)(=O)n2ccc(-c3ccc4ccn(S(=O)(=O)c5ccc(C)cc5)c4c3)c2)cc1`, the GI50 with 786-0, in the experiment with A498, in the experiment with ACHN, in the experiment with HOP-62, in the experiment with HT-29 and with KM12 was > 100 µM (inactive) each time. Moreover, the GI50 with LOX IMVI, with MCF7, in the experiment on MDA-MB-435, in the experiment on Malme-3M, in the experiment with OVCAR-4 and with PC-3 was > 100 µM (inactive) each time. Moreover, the GI50 is > 100 µM (inactive) in the experiment with RPMI-8226; > 100 µM (inactive) in the experiment on SF-268; > 100 µM (inactive) in the experiment on SK-MEL-5; 94.2 µM (inactive) with SNB-75; > 100 µM (inactive) in the experiment with U-251; > 100 µM (inactive) in the experiment on UACC-257. In the experiment with UACC-62, the GI50 is > 100 µM (inactive).

In the case of `COc1ccc(N2C(=O)C3c4[nH]c5ccc(OCc6ccccc6)cc5c4C4CCC(C(C)C)CC4C3C2=O)cc1` (stereo not given), the GI50 in the experiment on 786-0 is 8.11 µM (inactive); in the experiment on A498 it was 5.71 µM (inactive); in the experiment with ACHN, 10.8 µM (inactive); in the experiment on HOP-62 it was 8.63 µM (inactive); in the experiment on HT-29, > 100 µM (inactive); with KM12 it was > 100 µM (inactive). Further, the GI50 is 80.5 µM (inactive) with LOX IMVI; 99.1 µM (inactive) with MCF7; > 100 µM (inactive) in the experiment on MDA-MB-435; 21 µM (inactive) in the experiment with Malme-3M; 19.4 µM (inactive) with OVCAR-4; > 89.9 µM (inactive) in the experiment with PC-3. The GI50 in the experiment on RPMI-8226 is > 72.6 µM (inactive); in the experiment with SF-268, 17.2 µM (inactive); in the experiment with SK-MEL-5, > 100 µM (inactive); in the experiment with SNB-75, 2.23 µM (inactive); in the experiment on U-251, 10.8 µM (inactive); in the experiment with UACC-257, > 100 µM (inactive). The GI50 in the experiment with UACC-62 was 29 µM (inactive).

As for `COC(=O)c1ccc(CCc2cc(O)ccc2O)cc1`, the GI50 in the experiment on 786-0 is 5.47 µM (inactive); with A498 it was 37.6 µM (inactive); in the experiment with ACHN, 13.3 µM (inactive); in the experiment with HOP-62, 12.2 µM (inactive); with HT-29 it was 28.4 µM (inactive); in the experiment with KM12 it was 5.52 µM (inactive). In addition, the GI50 in the experiment with LOX IMVI is 6.12 µM (inactive); in the experiment with MCF7, 7.5 µM (inactive); in the experiment with MDA-MB-435, 6.08 µM (inactive); in the experiment on Malme-3M, 8.75 µM (inactive); in the experiment on OVCAR-4 it was 10.8 µM (inactive); in the experiment on PC-3, 4.3 µM (inactive). Further, the GI50 in the experiment on RPMI-8226 was 0.847 µM (active); in the experiment on SF-268 it was 5.68 µM (inactive); in the experiment on SK-MEL-5 it was 10.2 µM (inactive); with SNB-75 it was 3.77 µM (inactive); in the experiment on U-251 it was 7.46 µM (inactive); in the experiment on UACC-257, 13 µM (inactive). Besides, the GI50 in the experiment with UACC-62 was 14.8 µM (inactive).

Consider `O=c1c2ccc(Cl)cc2oc2c(CSc3ccccc3)cccc12`, for which the GI50 was > 61.5 µM (inactive) with 786-0; 25.7 µM (inactive) in the experiment with A498; > 39.2 µM (inactive) in the experiment with ACHN; > 55 µM (inactive) with HOP-62; 95.9 µM (inactive) in the experiment with HT-29; 21.6 µM (inactive) with KM12. Further, the GI50 in the experiment with LOX IMVI is 9.57 µM (inactive); in the experiment with MCF7, 29.1 µM (inactive); in the experiment on MDA-MB-435, > 21.9 µM (inactive); with Malme-3M, 14.2 µM (inactive); in the experiment on OVCAR-4 it was > 59.4 µM (inactive); with PC-3, > 39.5 µM (inactive). Moreover, the GI50 is 13.2 µM (inactive) in the experiment with RPMI-8226; > 100 µM (inactive) in the experiment with SF-268; > 46.6 µM (inactive) with SK-MEL-5; > 33.2 µM (inactive) in the experiment on SNB-75; 39.9 µM (inactive) with U-251; > 57.9 µM (inactive) in the experiment with UACC-257. In addition, the GI50 with UACC-62 was > 41.4 µM (inactive).
